For assay [1], the target named is Human immunodeficiency virus type 1 reverse transcriptase (Human immunodeficiency virus 1) (UniProt Q72547). Kind of assay: Activity at HIV1 reverse transcriptase assessed as elongation of DNA primer after 60 mins at 500 uM by single nucleotide incorporation assay.
The target is the same in assay [2]. Put plainly: Activity at HIV1 reverse transcriptase assessed as elongation of DNA primer after 60 mins by single nucleotide incorporation assay.
For assay [3] the target is unchanged. Put plainly: Activity at HIV1 reverse transcriptase assessed as elongation of DNA primer up to 120 mins at 500 uM by single nucleotide incorporation assay.
The target is the same in assay [4]. Kind of assay: Activity at HIV1 reverse transcriptase assessed as elongation of DNA primer up to 120 mins at 1 mM by single nucleotide incorporation assay.

Active and inactive are the calls of the source. The rule behind the calls is not given here.

Regarding `Nc1ncnc2c1ncn2[C@H]1C[C@H](O)[C@@H](COP(=O)(O)N[C@@H](CC(=O)O)C(=O)O)O1`, in assay [1], the Activity is 82%.

On to `Nc1ccn([C@@H]2O[C@H](COP(=O)(O)NCCCC(C(=O)O)C(=O)O)C[C@H]2O)c(=O)n1`, for which, in assay [2], the result was inactive. Regarding `Nc1ccn([C@H]2C[C@H](O)[C@@H](COP(=O)(O)NCCCC(C(=O)O)C(=O)O)O2)c(=O)n1`, the Activity in assay [3] came to 60%; in assay [4], 60%; in assay [1], 54%.
